Experimental data taken from patent US6362180B1, “Imidazopyridines for the treatment of neurological disorders” (Bristol-Myers Squibb Pharma Company, priority 1997, dated 2002).

Structure (SMILES) | melting point [°C]
CCc1nc2c(-c3cc4cc(Br)oc4cc3C)ncnc2n1C(C1CC1)C1CC1 [Example 5231, 6-(2-bromo-6-methylbenzofuran-5-yl)-9-dicyclopropylmethyl-8-ethylpurine] | 177 to 178
CCc1nc2c(-c3cc4c(c(Br)c3C)OCC4)ncnc2n1C(C1CC1)C1CC1 [Example 5232, 6-(7-bromo-6-methyl-2,3-dihydrobenzofuran-5-yl)-9-dicyclopropylmethyl-8-ethylpurine] | 179 to 180
CCc1nc2c(-c3ccc(OC)cc3Cl)ncnc2n1C(C1CC1)C1CC1 [Example 831, 6-(2-Chloro-4-methoxyphenyl)-9-dicyclopropylmethyl-8-ethylpurine] | 139 to 140
CCc1nc2c(-c3cc4ccoc4cc3C)ncnc2n1C(C1CC1)C1CC1 [Example 5201, 9-dicyclopropylmethyl-8-ethyl-6-(6-methylbenzofuran-5-yl)purine] | 139 to 141
CCCCC(CC)n1c(CC)nc2c(-c3c(C)cc(C)cc3C)ncnc21 (stereo not drawn) [Example 2, 8-Ethyl-9-(1-ethylpentyl)-6-(2,4,6-trimethylphenyl)purine] | 99 to 100
CCc1nc2c(-c3cc4c(cc3C)OCC4)ncnc2n1C(C1CC1)C1CC1 [Example 5001, 9-Dicyclopropylmethyl-8-ethyl-6-(6-methyl-2,3-dihydrobenzofuran-5-yl)purine] | 147 to 148
